Assays:
[1] = Experiment 2: dexamethasone concentration in the retina after DEX-PLA implant placed in the choroid near the optic disc (LC/MS/MS); type: in vivo, Japanese white rabbits; settings: Japanese white, rabbit, other: intrachoroidal implant near the optic disc, 3 μg
From the text: Nine 3-month-old Japanese white rabbits (purchased from Japan SLC, Inc., weight: 2 to 2.5 kg) were used as subjects, and the implant was placed in one of the eyes of each rabbit.
The implant was placed in the choroid using the method for placing an implant in the choroid according to the embodiments of the invention. Specifically, the conjunctiva was incised, and an injection needle having a size of 25G was inserted between the conjunctiva and the sclera. The tip of the injection needle was advanced to the vicinity of the optic disc along the surface of the sclera. After placing a vitrectomy lens over the cornea so that the eyeground could be observed, the tip of the injection needle appearing white was observed while observing the eyeground through the vitrectomy lens and pressing the sclera using the tip of the injection needle. The tip of the injection needle was moved to determine an appropriate insertion position of the implant in the vicinity of the optic disc, and the tip of the injection needle was inserted diagonally into the sclera. The tip of the injection needle was advanced into the choroid, and the implant was inserted into the choroid through the tip opening formed at the tip of the injection needle.
The eyeball was removed from each rabbit (three rabbits) belonging to each group when 24 hours, 1 week, and 3 weeks had elapsed after the placement of the implant.

[2] = Experiment 1: dexamethasone concentration in the retina after intravitreal, intrascleral or intrachoroidal gelatin implant (LC/MS/MS); type: in vivo, Japanese white rabbits; settings: Japanese white, rabbit, 3 μg
Method: Experiments were performed to determine the drug release effect of an intrachoroidal implant, an intravitreal implant, and an intrascleral implant. In Experiment 1, the implant was placed in the choroid using the known method illustrated in FIG. 10. […] Therefore, the implant was placed in the choroid using the known method in order to compare the intravitreal implant, the intrascleral implant, and the intrachoroidal implant as to the drug release effect.
Gelatin was cut to have a size of 0.3 (length)×0.3 (width)×0.1 (thick) mm.
Twelve 3-month-old Japanese white rabbits (purchased from Japan SLC, Inc., weight: 2 to 2.5 kg) were used as subjects. The rabbits were equally divided into an intrachoroidal implant group, an intravitreal implant group, and an intrascleral implant group, and the implant was placed in one of the eyes of each rabbit belonging to each group.
Regarding the intrachoroidal implant group, the vitreous gel in the eyeball was liquefied, and the implant was placed in the choroid using the known method for placing an implant in the choroid. The implant was placed in the choroid at a position 6 mm below the cornea.
Regarding the intravitreal implant group, the implant was placed in the vitreous body at a position 2 mm above the cornea.
Regarding the intrascleral implant group, the implant was placed in the sclera at a position 6 mm below the cornea.
The eyeball was removed from each rabbit (four rabbits) belonging to each group when 1, 3, and 24 hours had elapsed after the placement of the implant. […] In FIG. 14, the symbol “*” indicates P<0.05, and the symbol “**” indicates P<0.01.

concentration at 1 week [1]: 41.2 ± 14.2 ng/g
concentration at 3 weeks [1]: 17.2 ± 11.3 ng/g
concentration at 24 h [1]: 159 ± 28.2 ng/g
concentration at 1 h ([2]; other: intrachoroidal implant): 409 ± 115 ng/g
concentration at 3 h ([2]; other: intrachoroidal implant): 23.8 ± 10.2 ng/g
concentration at 24 h ([2]; other: intrachoroidal implant): 4.7 ± 3.3 ng/g
concentration at 1 h ([2]; other: intrascleral implant): 122 ± 79.7 ng/g
concentration at 3 h ([2]; other: intrascleral implant): 5.4 ± 4 ng/g
concentration at 24 h ([2]; other: intrascleral implant): 3.3 ± 3.2 ng/g
concentration at 1 h ([2]; other: intravitreal implant): 13.5 ± 8.7 ng/g
concentration at 3 h ([2]; other: intravitreal implant): 3.6 ± 4.2 ng/g
concentration at 24 h ([2]; other: intravitreal implant): 4.2 ± 4.5 ng/g
Structure (SMILES): C[C@@H]1C[C@H]2[C@@H]3CCC4=CC(=O)C=C[C@]4(C)[C@@]3(F)[C@@H](O)C[C@]2(C)[C@@]1(O)C(=O)CO [dexamethasone]

From US10463532B2, “Method for placing implant in choroid that can less invasively and simply place implant in choroid in optic disc-macula area” (priority 2016, dated 2019)
